According to patent EP4527379A1, “LIPIDS CONTAINING AN OLIGOGLYCEROL GROUP” (Thermosome GmbH, priority 2023, dated 2025):

Tests used:
[1] = Indicative storage stability studies using HPLC/CAD; format: physicochemical
Method: The batch was investigated in indicative storage stability studies using HPLC/CAD. CLG2 is stable in its powder form for at least 1 year when stored at -20°C. In contrast to NLG2, CLG2 could also be stored in organic solvents (e.g., chloroform) at temperature ranges from -20 to 2-8°C for at least 9 months.

[2] = Solubility and chemical stability in organic solvents; format: physicochemical
Method: CLG2 is readily soluble in chloroform as a clear solution with at least 10 mg/ml.

[3] = LNP formulations with the cationizable lipid (Carrasco et al. 2021); cited from earlier work

CCCCCCCCCCCCCCCC(=O)OCC(C[N+](C)(C)CC(O)COCC(O)CO)OC(=O)CCCCCCCCCCCCCCC (centres unmarked) [CLG2]
could be stored in organic solvents ([1]; organic solvents (e.g., chloroform), -20 to 2-8°C): at least 9 months
stable in its powder form ([1]; powder, stored at -20°C): at least 1 year
solubility ([2]; chloroform, organic solvent or mixture, read-out: soluble in chloroform as a clear solution): ≥ 10000 µg/mL
decomposition in ethanol ([2]; ethanol, compared with methanol and isopropanol): less pronounced

CCCCC/C=C\C/C=C\CCCCCCCCC(CCCCCCCC/C=C\C/C=C\CCCCC)OC(=O)CCCN(C)C [DLin-MC3-DMA]
pKa [3]: 6.57
